Results as given in publication PMC6332320, “Factors Influencing Oral Bioavailability of Thai Mango Seed Kernel Extract and Its Key Phenolic Principles” (Molecules, 2015).
Read-outs that look alike come from different tables or passages of the source.

Assays:
rat fecal lysates = experiment: in vitro; assay type: in vitro ADME; conditions: for recovery after incubation with inactive fecal lysates and HBSS at pH 6 / recovery after incubation with fecal lysates: as principle in MSKE 100 µg/mL; for recovery after incubation with fecal lysates / stability in inactive rat fecal lysates or HBSS at pH 6: 24 h
Protocol: (§1) The rat fecal lysate was prepared according to the method of Niu et al. with slight modifications. Briefly, 3 g of feces was collected from SD rats (8–10 weeks, n = 6) were then washed with ice-cold 0.1 mM potassium phosphate buffer (KPi, 10 mL). After resuspension in ice-cold 0.1 mM KPi (20 mL), the feces were vortexed and sonicated in an ice water bath for 45 min. To obtain the fecal lysate, the mixture was centrifuged at 15,000 rpm at 4 °C for 30 min. The supernatant was collected and maintained at –80 °C until use. The protein concentration in the fecal lysate was determined using a BCA™ protein assay kit.
(§2) The prepared fecal lysate was thawed and diluted with ice-cold HBSS at pH 6 to obtain a final concentration of 0.5 mg/mL protein for each test. […] The mixtures were then incubated in water bath at 37 °C for 24 h. After samples (200 μL) were collected at each specific time point (0, 1, 2, 8, and 24 h), the reaction was stopped by adding ice-cold methanol (50 μL). The samples were then vortexed and centrifuged at 15,500 rpm for 15 min, and the supernatant was injected into the UPLC for analysis.
(§3) The chemical and biological stabilities of the phenolic compounds were expressed as the concentration of the analyte at different time points relative to the concentration of the same analyte at time zero multiplied by 100 (% recovery).

in vitro = in vitro ADME, rat; conditions: Sprague-Dawley, pH 6, rat fecal lysates, 24 h; for recovery at 24 h, 100 µg/mL: as principle in MSKE 100 µg/mL, relative to HBSS, read-out: relative recovery after incubation with the fecal lysates
Protocol: as §1, §2, §3

[1] = cited from earlier work
[2] = Chemical stability in HBSS at pH 5, 6, 7 and 8; assay type: physicochemical
Protocol: The chemical stability of GA, MG, PGG and MSKE was determined in HBSS at pH 5, 6, 7 and 8. The test compounds were added to HBSS to obtain the final concentrations (2 and 20 μM) for each standard compound or MSKE (0.25 mg/mL), which is equivalent to concentrations of 26.70 ± 1.35 µM GA, 4.90 ± 0.38 µM MG and 27.09 ± 8.01 µM PGG. The solutions at pH 5, 7 and 8 were then incubated in a water bath at 37 °C for 4 h, whereas the solutions at pH 6 were incubated for 8 h. Samples (200 μL) were collected at different time intervals (0, 1, 2, 3 and 4 h or 0, 1, 2, 4, 6 and 8 h) and then vortexed and centrifuged at 15,500 rpm for 15 min. The supernatant was injected into the UPLC for analysis. All experiments were performed in triplicate.
as §3

Caco-2 cell lysates = experiment: Biological stability in Caco-2 cell lysates; assay type: in vitro ADME, human; conditions: for stability in HBSS at pH 6 (blank control) / stability in Caco-2 cell lysates / stability in inactive Caco-2 cell lysates: individual compound 100 µM; for stability in HBSS at pH 6 (blank control): HBSS pH 6, up to 24 h; for stability in Caco-2 cell lysates: active cell lysates, within 24 h; for stability in inactive Caco-2 cell lysates: inactive (heated) cell lysates
Protocol: Caco-2 cells were cultured in T75 flasks at a seeding density of 2 × 10^6 cells/flask for 12–15 days. The cell lysate was freshly prepared by washing the cells twice with ice-cold HBSS at pH 6 (12 mL). The cells were then collected by scraping and resuspending in ice-cold HBSS at pH 6 (7.5 mL/flask). The cell suspension was vortexed and sonicated in an ice water bath for 30 min to obtain the lysate, which was kept on ice until use, and its cellular protein concentration was determined using a BCA™ protein assay kit (Thermo Fisher Scientific, Rockford, IL, USA) with bovine serum albumin as a reference standard.
Many phenolic compounds were subject to sulfation and glucuronidation by Caco-2 cells at concentrations higher than 20 μM [16, 21, 43] and the metabolites of GA, MG and PGG could not be observed in Caco-2 transport experiment. Therefore, the concentration of the standard pure compounds used in this study was higher than that used in the chemical stability experiment. After preparing the cell lysate, the test compounds were prepared by dissolution in HBSS at pH 6 and then added to the lysates for a final concentration of 1.08 mg/mL protein to obtain final individual concentrations of 100 μM for GA, MG and PGG and 0.75 mg/mL for MSKE, which is equivalent to concentrations of 55.12 ± 4.57 µM GA, 7.56 ± 0.85 µM MG and 110.02 ± 17.52 µM PGG. The mixtures were then incubated in a water bath at 37 °C for 24 h, and samples (50 µL for standard compounds, and 200 µL for MSKE) were collected at 0, 4, 6 and 24 h. Each sample was then added to an ice-cold 50% methanol (150 µL for GA, MG and PGG, and 600 µL for MSKE) to stop the reaction, vortexed and centrifuged at 15,500 rpm for 15 min, and the supernatant was injected into the UPLC for analysis.
as §3

[3] = human, in vivo, po; cited from earlier work
[4] = as principle in MSKE 0.25 mg/mL, pH 5, 6 or 7, 4 h
[5] = as principle in MSKE 0.25 mg/mL, pH 6, 8 h
[6] = as principle in MSKE 0.25 mg/mL, pH 8, 4 h
[7] = individual compound 2 and 20 µM, pH 5 or 7, 4 h, 37 °C

Row | Structure (SMILES) | recovery after incubation with inactive fecal lysates and HBSS at pH 6 (rat fecal lysates) | recovery after incubation with fecal lysates (rat fecal lysates; rat fecal lysates) | stability in inactive rat fecal lysates or HBSS at pH 6 (rat fecal lysates; individual compound 10 µM) | chemical stability in HBSS [2, 4] | chemical stability in HBSS [2, 5] | chemical stability in HBSS [2, 6] | chemical stability in HBSS [2, 7] | stability in HBSS at pH 6 (blank control) (Caco-2 cell lysates) | stability in Caco-2 cell lysates (Caco-2 cell lysates) | stability in inactive Caco-2 cell lysates (Caco-2 cell lysates; 24 h) | also measured
1 | O=C(O)c1cc(O)c(O)c(O)c1 [GA, Gallic acid] | increased recoveries | increased recoveries | not significantly different from the initial concentrations | stable | moderately increased recovery | decomposed | only stable at pH 7 | stable | degraded | stable | maximum GA concentration increase after hydrolysis of PGG (rat fecal lysates; PGG 10 µM incubated with rat fecal lysates): approximately 4 fold; recovery at 24 h, 100 µg/mL (in vitro): 167%; Cmax ([1]; rat, in vivo, po, 100 umol/kg): 710 nM; elimination t1/2 ([1]; rat, in vivo, po, 100 umol/kg): 24 min; Tmax ([1]; rats, p.o., GA as pure compound or component of rhubarb and grape seed extract, plasma): approximately 60 min; t1/2 [3]: ~60 min
2 | COC(=O)c1cc(O)c(O)c(O)c1 [MG, methyl gallate] | increased recoveries | increased recoveries | stable | increased recoveries | dramatically increased recoveries | slightly decreased recovery | only stable at pH 7 | stable | degraded | stable | time to complete degradation in fecal lysates (rat fecal lysates; individual compound 10 µM, rat fecal lysates): ≤ 8 h; stability in inactive fecal lysates (rat fecal lysates; mixture of GA, MG and PGG 10 µM each, PGG after 8 h): good stabilities; recovery at 24 h, 100 µg/mL (in vitro; rat fecal lysate): 54.7%; recovery at 24 h, 10 µM (in vitro; rat fecal lysate, mixture of GA, MG and PGG 10 µM each, read-out: recovery after incubation with the fecal lysates): 55.4%; relative recoveries after incubation with Caco-2 cell lysates (Caco-2 cell lysates; as principle in MSKE 0.75 mg/mL, 24 h, relative to HBSS): decreased relative recoveries
